Ends that are not written are not given here.
Columns and labels:
Sf9 cells = test: CPP-mediated delivery of mCherry mRNA cargo into insect cells; assay type: cell-based, Spodoptera frugiperda; conditions: complex of 75 μM unlabeled CPP and 10 μg mCherry mRNA, overnight
Source text: (§1) Sample preparation and analysis methods were based on those previously reported (Jafari et al. (201 4) “Serum stability and physicochemical characterization of a novel amphipathic peptide C6M 1 for siRNA delivery”, PLoS One, 9(5), e97797; and Gillet et al. (2017) “Investigating Engineered Ribonucleoprotein Particles to Improve Oral RNAi Delivery in Crop Insect Pests”, Frontiers in Physiology, 8(256), doi: 10.3389/fphys.2017.00256). Reagents are described in Examples 1 and 2. Nanocomplex samples were prepared in one of several ways, depending on type of CPP, RNA, or assay. […] Reaction volumes added to cells were 6.38 μL CPP and 6.38 μL mRNA. Final optimal CPP concentration was assessed by amount of fluorescent signal apparent within cells. For insect cell-based assays with CPP-YFP·Cy3-dsRNA or CPP·dsRNA, first a complex formation solution was prepared in molecular biology-grade water containing 90 mg·mL^−1 maltose, 9 mg·mL^−1 mannitol, 392. 16 mM CaCI2, pH 7.0, and vacuum-filtered using Corning™ Disposable Vacuum Filter and Storage System containing a cellulose nitrate filter. Then, increasing amounts of CPP-YFP were added to Cy3-dsRNA, from a molar ratio (CPP-YFP:Cy3-dsRNA) of 1:4 through 8:1 and incubated protected from light at 25° C. for 90 minutes prior to assessment via gel shift and DLS. Reaction volumes added per cell well were comprised of 17 μL reaction solution, 1 μL CPP, 1 μL dsRNA, and 1 μL molecular biology grade water; reaction sizes for larger total volumes were increased in increments of 20 μL and component ratio was held constant to maintain an ionic strength of […]. Final optimal molar ratio selected for cell experiments were determined by increase of the apparent size of the Cy3-dsRNA band on a native agarose gel (FIG. 2A and FIG. 2B), and/or appearance and increase in size of the complex peak detected by a Zetasizer Ultra (Malvern Panalytical, Malvern, United Kingdom) DLS instrument (FIG. 2C). […] Final optimal BAPC1 concentration was assessed by amount of fluorescent signal apparent within cells. […]

[1] = test system: western corn rootworm (WCR) larvae; test: Oral toxicity screening of CPPs in artificial diet; assay type: in vivo; conditions: first instar WCR larvae; for Affected (%): mortality and stunting
Method: Briefly, CPPs were incorporated into standard WCR artificial diet in 96-well microtiter plate format. A 25 μL aliquot of dosing solution was combined with 75 μL molten low-melt WCR diet and shaken on an orbital shaker to mix. Once diet solidified, preconditioned first instar WCR (freshly-hatched insects placed on neutral diet for 24 hours prior to transfer to test diet) were added to the diet plates at a rate of 1 insect·well^−1. Plates were placed inside an incubator (Percival Scientific, Inc., Perry, IA) set to 27° C., 65% RH, and a 24-hour dark cycle. The assay was scored for mortality and stunting affects after 7 and 12 days, without diet refresh, on a 0-3 scale, where 3=mortality, 2=severe stunting, 1=stunting, 0=no affect when compared with untreated larvae. The assay was repeated three times and end-results were tabulated using all three replicates and converted to percentages (Table 5).

DU182A cells = test: CPP-mediated delivery of mCherry mRNA cargo into insect cells; assay type: cell-based, Diabrotica undecimpunctata; conditions: complex of 75 μM unlabeled CPP and 10 μg mCherry mRNA, overnight
Source text: as §1

DvWL2 cells = test: as above; assay type: cell-based, Diabrotica virgifera virgifera; conditions: complex of 75 μM unlabeled CPP and 10 μg mCherry mRNA, overnight
Source text: as §1

| Molecule | fluorescent protein translated from delivered mCherry mRNA (fluorescent signal inside cells) (Sf9 cells) | Affected (%) ([1]; 0.195 ppm in artificial diet) | Affected (%) ([1]; 0.391 ppm in artificial diet) | Affected (%) ([1]; 0.781 ppm in artificial diet) | Affected (%) ([1]; 1.56 ppm in artificial diet) | Affected (%) ([1]; 3.13 ppm in artificial diet) | Affected (%) ([1]; 6.25 ppm in artificial diet) | Affected (%) ([1]; 12.5 ppm in artificial diet) | Affected (%) ([1]; 25.0 ppm in artificial diet) | Affected (%) ([1]; 50.0 ppm in artificial diet) | Affected (%) ([1]; 100 ppm in artificial diet) | Affected (%) ([1]; 200 ppm in artificial diet) | fluorescent protein translated from delivered mCherry mRNA (fluorescent signal inside cells) (DU182A cells) | fluorescent protein translated from delivered mCherry mRNA (fluorescent signal inside cells) (DvWL2 cells) | Mortality (%) ([1]; 0.195 ppm in artificial diet) | Mortality (%) ([1]; 0.391 ppm in artificial diet) | Mortality (%) ([1]; 0.781 ppm in artificial diet) | Mortality (%) ([1]; 1.56 ppm in artificial diet) | Mortality (%) ([1]; 3.13 ppm in artificial diet) | Mortality (%) ([1]; 6.25 ppm in artificial diet) | further results |
| --- | --- | --- | --- | --- | --- | --- | --- | --- | --- | --- | --- | --- | --- | --- | --- | --- | --- | --- | --- | --- | --- |
| CSCC[C@H](NC(=O)[C@@H](NC(=O)[C@H](CO)NC(=O)CNC(=O)[C@H](C)NC(=O)[C@H](C)NC(=O)CNC(=O)[C@H](CC(C)C)NC(=O)[C@H](Cc1ccccc1)NC(=O)CNC(=O)[C@H](CC(C)C)NC(=O)[C@H](Cc1ccccc1)NC(=O)[C@H](CC(C)C)NC(=O)[C@H](C)NC(=O)CN)[C@@H](C)O)C(=O)NCC(=O)N[C@@H](C)C(=O)N[C@@H](Cc1c[nH]c2ccccc12)C(=O)N[C@@H](CO)C(=O)N[C@@H](CCC(N)=O)C(=O)N1CCC[C@H]1C(=O)N[C@@H](CCCCN)C(=O)N[C@@H](CO)C(=O)N[C@@H](CCCCN)C(=O)N[C@@H](CCCNC(=N)N)C(=O)N[C@@H](CCCCN)C(=O)N[C@H](C(=O)O)C(C)C [MPG] | Translation of mRNA into a functional fluorescent protein occurred | 0 | 0 | 0 | 0 | 0 | 0 | 0 | 0 | 0 | 0 | 0 | Translation of mRNA into a functional fluorescent protein occurred | Translation of mRNA into a functional fluorescent protein occurred |  |  |  |  |  |  |  |
| KQINNWFINQRKRHWK [Knotted-1, KQINNWFINQRKRHWK] | Translation of mRNA into a functional fluorescent protein occurred | 0 | 0 | 0 | 0 | 0 | 0 | 0 | 0 | 0 | 0 | 0 | Translation of mRNA into a functional fluorescent protein occurred | Translation of mRNA into a functional fluorescent protein occurred | 0 | 0 | 0 | 0 | 0 | 0 | Mortality (%) ([1]; 12.5 ppm in artificial diet): 0%; Mortality (%) ([1]; 25.0 ppm in artificial diet): 0%; Mortality (%) ([1]; 50.0 ppm in artificial diet): 0%; Mortality (%) ([1]; 100 ppm in artificial diet): 0%; Mortality (%) ([1]; 200 ppm in artificial diet): 0% |
| VRLPPPVRLPPPLVRPPPL [VRLPPPVRLPPPLVRPPPL] |  | 0 | 0 | 0 | 0 | 0 | 0 | 0 | 0 | 0 | 0 | 0 |  |  | 0 | 0 | 0 | 0 | 0 | 0 | Mortality (%) ([1]; 12.5 ppm in artificial diet): 0%; Mortality (%) ([1]; 25.0 ppm in artificial diet): 0%; Mortality (%) ([1]; 50.0 ppm in artificial diet): 0%; Mortality (%) ([1]; 100 ppm in artificial diet): 0%; Mortality (%) ([1]; 200 ppm in artificial diet): 0% |

Source: patent US20240041050A1, “CELL PENETRATING PEPTIDE MEDIATED RNA TRANSDUCTION WITHIN INSECT CELLS” (PIONEER HI-BRED INTERNATIONAL, INC., priority 2020, published 2024)
